From US20060142566A1, “Enantioselective process for the preparation of both enantiomers of 10,11-dihydro-10-hydroxy-5h-dibenz[b,f]azepine-5-carboxamide and new crystal forms thereof” (priority 2002, published 2006)

Key:
Format in all cases: physicochemical
[1] = hygroscopicity of the crystal modifications
[2] = solubility in organic and aqueous solutions; conditions: compared to modification B
[3] = stability of the crystal forms (bulk stability, thermodynamic stability); conditions: solid form, storage

Row | SMILES | hygroscopicity [1] | solubility [2] | stability of crystal form (thermodynamic) [3]
1 | NC(=O)N1c2ccccc2CC(O)c2ccccc21 (single isomer, unassigned) [modification A, (R)- or (S)-10,11-dihydro-10-hydroxy-5H-dibenz[b,f]azepine-5-carboxamide] | Neither modification A nor modification B are hygroscopic | better soluble in organic and aqueous solutions than modification B | 
2 | NC(=O)N1c2ccccc2CC(O)c2ccccc21 (single isomer, unassigned) [modification B, (R)- or (S)-10,11-dihydro-10-hydroxy-5H-dibenz[b,f]azepine-5-carboxamide] | Neither modification A nor modification B are hygroscopic |  | thermodynamically stable crystalline form
